The values below are quoted from earlier work in patent US9987253B2, “Cannabinoid receptor antagonists/inverse agonists useful for treating metabolic disorders, including obesity and diabetes” (Jenrin Discovery, priority 2012, dated 2018).

The conditions of this data set: type 2 diabetes patients not treated with other anti-diabetic medications, six months, baseline 7.9.

As for `Cc1c(C(=O)NN2CCCCC2)nn(-c2ccc(Cl)cc2Cl)c1-c1ccc(Cl)cc1` [rimonabant], the HbA1c levels lowered is 0.8%.
